Experimental data as given in patent US10584104B2, “Carboxylic acid URAT1 inhibitor containing diarylmethane structure, preparation method and use thereof” (TIANJIN INSTITUTE OF PHARMACEUTICAL RESEARCH CO., LTD., priority 2015, dated 2020).
pIC50: −log10 of the molar value. Like-named read-outs stand apart in the source and are kept apart here.

How the values were obtained:
[1] = molecular target: T1, URAT1 (Homo sapiens (Human), UniProt Q96S37); assay: Inhibition of [8-14C] uric acid uptake by HEK293 cells stably expressing URAT1, test compounds at 10 μM; assay type: cell-based
T1 sequence (Q96S37 whole entry): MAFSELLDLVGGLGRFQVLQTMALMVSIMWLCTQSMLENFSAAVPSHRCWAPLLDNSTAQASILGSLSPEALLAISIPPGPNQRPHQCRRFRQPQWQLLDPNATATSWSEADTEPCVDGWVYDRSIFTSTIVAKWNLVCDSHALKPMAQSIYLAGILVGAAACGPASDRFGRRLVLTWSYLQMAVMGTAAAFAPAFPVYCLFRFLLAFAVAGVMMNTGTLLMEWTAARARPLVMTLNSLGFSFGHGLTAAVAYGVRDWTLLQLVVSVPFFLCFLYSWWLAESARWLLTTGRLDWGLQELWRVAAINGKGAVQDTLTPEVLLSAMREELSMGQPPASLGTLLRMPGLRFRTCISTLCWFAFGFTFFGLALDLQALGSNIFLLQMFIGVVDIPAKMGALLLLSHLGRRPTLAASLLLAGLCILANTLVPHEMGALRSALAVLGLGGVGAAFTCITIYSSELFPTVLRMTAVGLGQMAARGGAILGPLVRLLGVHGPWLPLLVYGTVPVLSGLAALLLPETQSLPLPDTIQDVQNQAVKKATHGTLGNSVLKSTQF
Procedure: (I) Inhibitory Experiment of the Test Compounds at a Concentration of 10 μM on URAT1 After trypsin digestion, the expression cells (HEK293) stably expressing URAT1 gene and mock cells were all inoculated into lysine-coated 24-well culture plates, with the cell inoculation density being 1×10^5 cells/well, and cultured in incubator at 37° C., 5% CO2 and saturated humidity for 2 days. […] After 2 min, the reaction was terminated with ice-bathed DPBS buffer solution and washing was carried out for three times. […]
wherein, control=the intensity of radioactivity corresponding to the well without the test compound test compound=the intensity of radioactivity corresponding to the well with the test compound mock=the intensity of radioactivity corresponding to the well of blank cells untransfected with URAT1

[2] = molecular target: T1, URAT1; assay: IC50 for inhibition of the test compounds on URAT1 (nine concentration points, 0.001-10 μM); conditions: HEK293 cells stably expressing URAT1; [8-14C] uric acid uptake; nine concentrations 0.001-10 μM
[3] = HEK293, read-out: Inhibition rate (%)
[4] = 10 μM test compound, HEK293 cells stably expressing URAT1, 30 μM [8-14C] uric acid, 2 min
[5] = 10 μM test compound, HEK293 cells stably expressing URAT1, 30 μM [8-14C] uric acid, 2 min, read-out: Inhibition rate (%)

Structure (SMILES) | inhibition at 10 µM [1, 5] [%] | further results
CC(C)(Sc1nnc(Br)n1-c1ccc(C2CC2)c2ccccc12)C(=O)O [Compound A, reference compound] | – | inhibition at 10 µM [1, 3]: 55%
O=C(O)CCc1nnc(Br)n1-c1ccc(C2CC2)c2ccccc12 [Compound B, reference compound] | – | inhibition at 10 µM [1, 3]: 50%
O=C(O)CSc1nnc(Br)n1Cc1ccc(C2CC2)c2ccccc12 [Compound of Example 1] | – | pIC50 [2]: 6.70; Inhibition rate (%) [1, 4]: 90%
O=C(O)CCc1nnc(Br)n1Cc1ccc(C2CC2)c2ccccc12 [Compound of Example 2] | – | pIC50 [2]: 6.71; Inhibition rate (%) [1, 4]: 91%
O=C(O)CSc1nncn1Cc1ccc(C2CC2)c2ccccc12 [Compound of Example 3] | 60 | –
O=C(O)CSc1nnc(F)n1Cc1ccc(C2CC2)c2ccccc12 [Compound of Example 4] | 62 | –
O=C(O)CSc1nnc(Cl)n1Cc1ccc(C2CC2)c2ccccc12 [Compound of Example 5] | 76 | pIC50 [2]: 6.38
O=C(O)CSc1nnc(I)n1Cc1ccc(C2CC2)c2ccccc12 [Compound of Example 6] | 78 | pIC50 [2]: 6.36
O=C(O)CSc1nnc(Br)n1Cc1cccc2ccccc12 [Compound of Example 7] | 83 | –
Cc1ccc(Cn2c(Br)nnc2SCC(=O)O)c2ccccc12 [Compound of Example 8] | 83 | –
CCc1ccc(Cn2c(Br)nnc2SCC(=O)O)c2ccccc12 [Compound of Example 9] | 84 | –
CCCc1ccc(Cn2c(Br)nnc2SCC(=O)O)c2ccccc12 [Compound of Example 10] | 85 | pIC50 [2]: 7.03
CC(C)c1ccc(Cn2c(Br)nnc2SCC(=O)O)c2ccccc12 [Compound of Example 11] | 91 | pIC50 [2]: 6.32
O=C(O)CSc1nnc(Br)n1Cc1ccc(F)c2ccccc12 [Compound of Example 12] | 76 | –
O=C(O)CSc1nnc(Br)n1Cc1ccc(Cl)c2ccccc12 [Compound of Example 13] | 75 | –
N#Cc1ccc(Cn2c(Br)nnc2SCC(=O)O)c2ccccc12 [Compound of Example 14] | 84 | –
O=C(O)CSc1nnc(Br)n1Cc1ccc([N+](=O)[O-])c2ccccc12 [Compound of Example 15] | 70 | –
COc1ccc(Cn2c(Br)nnc2SCC(=O)O)c2ccccc12 [Compound of Example 16] | 81 | –
CC(C)(Sc1nnc(Br)n1Cc1ccc(C2CC2)c2ccccc12)C(=O)O [Compound of Example 17] | 93 | pIC50 [2]: 5.99
CC(C)(Sc1nncn1Cc1ccc(C2CC2)c2ccccc12)C(=O)O [Compound of Example 18] | 78 | –
CC(C)(Sc1nnc(F)n1Cc1ccc(C2CC2)c2ccccc12)C(=O)O [Compound of Example 19] | 82 | –
CC(C)(Sc1nnc(Cl)n1Cc1ccc(C2CC2)c2ccccc12)C(=O)O [Compound of Example 20] | 86 | pIC50 [2]: 6.05
CC(C)(Sc1nnc(I)n1Cc1ccc(C2CC2)c2ccccc12)C(=O)O [Compound of Example 21] | 82 | –
CC(C)(Sc1nnc(Br)n1Cc1cccc2ccccc12)C(=O)O [Compound of Example 22] | 77 | –
Cc1ccc(Cn2c(Br)nnc2SC(C)(C)C(=O)O)c2ccccc12 [Compound of Example 23] | 83 | –
CCc1ccc(Cn2c(Br)nnc2SC(C)(C)C(=O)O)c2ccccc12 [Compound of Example 24] | 84 | –
CCCc1ccc(Cn2c(Br)nnc2SC(C)(C)C(=O)O)c2ccccc12 [Compound of Example 25] | 80 | pIC50 [2]: 6.00

Structure (SMILES) | inhibition at 10 µM [1, 5] [%] | further results
CC(C)c1ccc(Cn2c(Br)nnc2SC(C)(C)C(=O)O)c2ccccc12 [Compound of Example 26] | 91 | –
CC(C)(Sc1nnc(Br)n1Cc1ccc(F)c2ccccc12)C(=O)O [Compound of Example 27] | 83 | –
CC(C)(Sc1nnc(Br)n1Cc1ccc(Cl)c2ccccc12)C(=O)O [Compound of Example 28] | 77 | –
CC(C)(Sc1nnc(Br)n1Cc1ccc(C#N)c2ccccc12)C(=O)O [Compound of Example 29] | 89 | –
CC(C)(Sc1nnc(Br)n1Cc1ccc([N+](=O)[O-])c2ccccc12)C(=O)O [Compound of Example 30] | 81 | –
COc1ccc(Cn2c(Br)nnc2SC(C)(C)C(=O)O)c2ccccc12 [Compound of Example 31] | 84 | –
O=C(O)CCc1nncn1Cc1ccc(C2CC2)c2ccccc12 [Compound of Example 32] | 67 | –
O=C(O)CCc1nnc(F)n1Cc1ccc(C2CC2)c2ccccc12 [Compound of Example 33] | 68 | –
O=C(O)CCc1nnc(Cl)n1Cc1ccc(C2CC2)c2ccccc12 [Compound of Example 34] | 88 | –
O=C(O)CCc1nnc(I)n1Cc1ccc(C2CC2)c2ccccc12 [Compound of Example 35] | 84 | –
Cc1ccc(Cn2c(Br)nnc2CCC(=O)O)c2ccccc12 [Compound of Example 36] | 82 | –
CCc1ccc(Cn2c(Br)nnc2CCC(=O)O)c2ccccc12 [Compound of Example 37] | 84 | –
CCCc1ccc(Cn2c(Br)nnc2CCC(=O)O)c2ccccc12 [Compound of Example 38] | 86 | pIC50 [2]: 6.97
CC(C)c1ccc(Cn2c(Br)nnc2CCC(=O)O)c2ccccc12 [Compound of Example 39] | 92 | pIC50 [2]: 6.42
N#Cc1ccc(Cn2c(Br)nnc2CCC(=O)O)c2ccccc12 [Compound of Example 40] | 92 | –
CC(C)(Cc1nnc(Br)n1Cc1ccc(C2CC2)c2ccccc12)C(=O)O [Compound of Example 41] | 94 | –
CC(C)(Cc1nncn1Cc1ccc(C2CC2)c2ccccc12)C(=O)O [Compound of Example 42] | 71 | –
CC(C)(Cc1nnc(F)n1Cc1ccc(C2CC2)c2ccccc12)C(=O)O [Compound of Example 43] | 80 | –
CC(C)(Cc1nnc(Cl)n1Cc1ccc(C2CC2)c2ccccc12)C(=O)O [Compound of Example 44] | 81 | –
CC(C)(Cc1nnc(I)n1Cc1ccc(C2CC2)c2ccccc12)C(=O)O [Compound of Example 45] | 82 | –
Cc1ccc(Cn2c(Br)nnc2CC(C)(C)C(=O)O)c2ccccc12 [Compound of Example 46] | 84 | –
CCc1ccc(Cn2c(Br)nnc2CC(C)(C)C(=O)O)c2ccccc12 [Compound of Example 47] | 85 | –
CCCc1ccc(Cn2c(Br)nnc2CC(C)(C)C(=O)O)c2ccccc12 [Compound of Example 48] | 85 | pIC50 [2]: 6.29
CC(C)c1ccc(Cn2c(Br)nnc2CC(C)(C)C(=O)O)c2ccccc12 [Compound of Example 49] | 93 | pIC50 [2]: 6.31
CC(C)(Cc1nnc(Br)n1Cc1ccc(C#N)c2ccccc12)C(=O)O [Compound of Example 50] | 92 | –
O=C(O)CCc1nnc(Br)n1Cc1ccc(Br)c2ccccc12 [Compound of Example 52] | 93 | pIC50 [2]: 7.08
